Broadly, the IC50 is the midpoint of a concentration-inhibition curve.

SMILES strings stand for the structures. Structures can show the parent of a compound that is named as a salt.

Our source for the IC50 values is patent US10494376B2, “Tetrahydroisoquinoline derived PRMT5-inhibitors” (CTXT PTY LTD, priority 2014, dated 2019).

Full-length PRMT5 enzyme (NCBI Reference sequence NP_006100.2) co-expressed with His6-MEP50, sequence (O14744 whole entry): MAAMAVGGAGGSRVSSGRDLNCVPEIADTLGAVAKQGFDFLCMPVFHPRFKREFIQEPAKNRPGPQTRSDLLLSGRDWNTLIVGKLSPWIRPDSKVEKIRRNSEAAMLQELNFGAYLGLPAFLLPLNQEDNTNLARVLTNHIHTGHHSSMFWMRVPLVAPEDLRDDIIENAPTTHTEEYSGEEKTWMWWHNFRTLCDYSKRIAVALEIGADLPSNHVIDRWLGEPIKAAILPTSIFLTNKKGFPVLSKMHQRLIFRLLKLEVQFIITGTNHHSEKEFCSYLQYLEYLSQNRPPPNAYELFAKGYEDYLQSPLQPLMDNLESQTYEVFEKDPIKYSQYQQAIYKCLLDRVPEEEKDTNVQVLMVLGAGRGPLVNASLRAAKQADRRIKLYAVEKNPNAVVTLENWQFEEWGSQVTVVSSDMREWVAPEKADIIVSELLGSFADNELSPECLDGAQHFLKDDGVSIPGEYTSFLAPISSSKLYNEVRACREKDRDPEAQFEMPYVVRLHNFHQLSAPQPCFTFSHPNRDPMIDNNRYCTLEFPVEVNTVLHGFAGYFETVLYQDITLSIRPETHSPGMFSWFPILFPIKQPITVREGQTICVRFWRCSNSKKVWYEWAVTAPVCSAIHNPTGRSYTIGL
Full-length PRMT5 enzyme (NCBI Reference sequence NP_006100.2) co-expressed with His6-MEP50, sequence (Q9BQA1 whole entry partner): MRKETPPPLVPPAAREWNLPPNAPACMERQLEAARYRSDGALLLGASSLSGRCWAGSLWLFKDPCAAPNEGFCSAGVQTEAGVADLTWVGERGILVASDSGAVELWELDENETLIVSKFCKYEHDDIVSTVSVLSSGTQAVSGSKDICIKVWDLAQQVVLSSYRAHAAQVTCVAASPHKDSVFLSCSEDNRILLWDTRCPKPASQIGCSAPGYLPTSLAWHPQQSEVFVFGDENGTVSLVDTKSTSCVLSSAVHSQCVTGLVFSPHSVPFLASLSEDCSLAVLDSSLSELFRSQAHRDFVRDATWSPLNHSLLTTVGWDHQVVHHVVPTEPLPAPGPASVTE

The experiment has as its target Full-length PRMT5 enzyme (NCBI Reference sequence NP_006100.2) co-expressed with His6-MEP50 (Homo sapiens (Human), UniProt O14744). Description: Revised PRMT5 Biochemical Assay. To be noted: 1 μM peptide substrate, 1 μM S-Adenosyl methionine, 4 hours at 37 degree Celsius, Transcreener EPIGEN fluorescence polarisation. The method, then: Compounds of the invention may be tested for in vitro activity in the following assay: A histone H4 derived peptide is used as substrate (amino acid sequence: […]N H2). Full-length PRMT5 enzyme (NCBI Reference sequence NP_006100.2) was co-expressed with His6-MEP50 in insect cells and purified via Nickel immobilized metal affinity and gel filtration chromatography (“the enzyme”).
The 6 μL reactions are run in Greiner brand black 384-well low volume assay plates. All reactions contained assay buffer (phosphate buffered saline, 0.01% (v/v) Tween-20, 0.01% (w/v) albumin from chicken egg white, 1 mM Dithiothreitol, 1 μM peptide substrate, 1 μM S-Adenosyl methionine, and 15 ng/reaction enzyme, with the enzyme being omitted from negative control reactions. Compounds were added in a volume of 100 nL from dilution series prepared in DMSO, positive and negative control reactions receiving the same volume DMSO without compound. The plates were sealed with adhesive seals and incubated for 4 hours at 37 degree Celsius. Reaction progress was measured using the Transcreener™ EPIGEN methyltransferase assay (BellBrook Labs, Madison, Wis.) as recommended by the manufacturer. To each reaction 2 μL detection mix were added, containing coupling enzymes, fluorescence polarisation tracer, and AMP antibody. Plates were incubated for 90 minutes before being read on a PerkinElmer EnVision™ plate reader in fluorescence polarisation mode. IC50 values were obtained from the raw readings by calculating percent inhibition (%1) for each reaction relative to controls on the same plate (% I=(I−CN)/(CP−CN) where CN/CP are the averages of the negative/positive reactions, respectively), then fitting the %1 data vs. compound concentration [I] to % I=(A+((B−A)/(1+((C/[I])^D)))) where A is the lower asymptote, B is the upper asymptote, C is the IC50 value, and D is the slope.
In general terms: Polarisation of emitted light reports the rotation of a fluorescent probe.
Take `O=C(NC[C@@H](O)[C@@H]1Cc2ccccc2CN1)c1ccc(C(=O)N2CC3CC2CO3)cc1` (mixture of isomers) [Example 94, 4-(2-Oxa-5-azabicyclo[2.2.1]heptane-5-carbonyl)-N-((R)-2-hydroxy-2-((S)-1,2,3,4-tetrahydroisoquinolin-3-yl)ethyl)benzamide]: the IC50 was 780 nM.
In turn, `O=C(NC[C@@H](O)[C@@H]1Cc2ccccc2CN1)c1ccccc1Cl` [Example 4, 2-Chloro-N-((R)-2-hydroxy-2-((S)-1,2,3,4-tetrahydroisoquinolin-3-yl)ethyl)benzamide] had an IC50 of 8790 nM.
`O=C(NC[C@@H](O)[C@@H]1Cc2ccccc2CN1)c1ccccc1C(F)(F)F` [Example 5, N-((R)-2-Hydroxy-2-((S)-1,2,3,4-tetrahydroisoquinolin-3-yl)ethyl)-2-(trifluoromethyl)benzamide]: the IC50 amounted to 51100 nM. This IC50 is about 5.8-fold higher than that of the compound before.
Under `O=C(NC[C@@H](O)[C@@H]1Cc2ccccc2CN1)c1ccccc1OC(F)(F)F` [Example 6, N-((R)-2-Hydroxy-2-((S)-1,2,3,4-tetrahydroisoquinolin-3-yl)ethyl)-2-(trifluoromethoxy)benzamide] stands 45800 nM; under `COc1ccccc1C(=O)NC[C@@H](O)[C@@H]1Cc2ccccc2CN1` [Example 7, N-((R)-2-Hydroxy-2-((S)-1,2,3,4-tetrahydroisoquinolin-3-yl)ethyl)-2-methoxybenzamide], 20000 nM; under `O=C(NC[C@@H](O)[C@@H]1Cc2ccccc2CN1)c1ccccc1F` [Example 9, 2-Fluoro-N-((R)-2-hydroxy-2-((S)-1,2,3,4-tetrahydroisoquinolin-3-yl)ethyl)benzamide], 12500 nM.
On to `Cc1ccccc1C(=O)NC[C@@H](O)[C@@H]1Cc2ccccc2CN1` [Example 10, N-((R)-2-Hydroxy-2-((S)-1,2,3,4-tetrahydroisoquinolin-3-yl)ethyl)-2-methylbenzamide], for which it took 22500 nM to reach half-maximal inhibition (IC50).
Under `O=C(NC[C@@H](O)[C@@H]1Cc2ccccc2CN1)c1cccc(-c2ccnnc2)c1` [Example 12, N-((R)-2-Hydroxy-2-((S)-1,2,3,4-tetrahydroisoquinolin-3-yl)ethyl)-3-(pyridazin-4-yl)benzamide] stands 663 nM; under `O=C(NC[C@@H](O)[C@@H]1Cc2ccccc2CN1)c1ccc(-c2nnc(N3CCOCC3)o2)cc1` [Example 13, N-((R)-2-Hydroxy-2-((S)-1,2,3,4-tetrahydroisoquinolin-3-yl)ethyl)-4-(5-morpholino-1,3,4-oxadiazol-2-yl)benzamide], 551 nM; under `O=C(NC[C@@H](O)[C@@H]1Cc2ccccc2CN1)c1coc(-c2ccccc2)n1` [Example 14, N-((R)-2-Hydroxy-2-((S)-1,2,3,4-tetrahydroisoquinolin-3-yl)ethyl)-2-phenyloxazole-4-carboxamide], 2330 nM.
Then `O=C(NC[C@@H](O)[C@@H]1Cc2ccccc2CN1)c1csc(-c2ccccc2)n1` [Example 16, N-((R)-2-Hydroxy-2-((S)-1,2,3,4-tetrahydroisoquinolin-3-yl)ethyl)-2-phenylthiazole-4-carboxamide], with 662 nM.
Consider `O=C(NC[C@@H](O)[C@@H]1Cc2ccccc2CN1)c1cnn(-c2cccnc2)c1` [Example 17, N-((R)-2-Hydroxy-2-((S)-1,2,3,4-tetrahydroisoquinolin-3-yl)ethyl)-1-(pyridin-3-yl)-1H-pyrazole-4-carboxamide dihydrochloride salt], for which the IC50 came out at 1270 nM.
Under `O=C(NC[C@@H](O)[C@@H]1Cc2ccccc2CN1)c1cccc(-c2cncnc2)c1` [Example 18, N-((R)-2-Hydroxy-2-((S)-1,2,3,4-tetrahydroisoquinolin-3-yl)ethyl)-3-(pyrimidin-5-yl)benzamide] stands 2100 nM; under `CC(=O)N1CCC(N(C)C(=O)c2ccc(C(=O)NC[C@@H](O)[C@@H]3Cc4ccccc4CN3)cc2)CC1` [Example 19, N^1-(1-Acetylpiperidin-4-yl)-N^4-((R)-2-hydroxy-2-((S)-1,2,3,4-tetrahydroisoquinolin-3-yl)ethyl)-N^1 methylterephthalamide], 912 nM.
